Source: patent US4269940A, “Microbiological alkane oxidation process” (priority 1979, dated 1981)
Like-named read-outs stand apart in the source and are kept apart here.

Tests used:
[1] = system: secondary alcohol dehydrogenase (SADH); test: Inhibition of purified secondary alcohol dehydrogenase (SADH); assay type: biochemical, Pseudomonas sp. ATCC 21439
Method: (§1) Secondary alcohol dehydrogenase (SADH) from an obligate methanol utilizer, Pseudomonas sp. ATCC 21439 was purified as follows. […] 0.05 M sodium phosphate buffer, pH 7.0 with 0.5mM dithiothretol (buffer A) and were disrupted sonically (5×1 min.). The crude extract was separated by centrifugation. The crude extract was heat-treated at 50° C. in a water bath for 10 minutes. The resulting precipitate was removed by centrifugation. To the supernatant solution, 25 ml of protamine sulfate solution (2% solution in 0.1 M Tris base) was added dropwise with continuous stirring. After standing for 30 minutes, the extract was centrifuged. The supernatant solution was fractionated with solid ammonium sulfate. […] This DEAE-cellulose eluate was concentrated by ammonium sulfate fractionation. Material precipitating between 30 and 50% ammonium sulfate saturation was collected by centrifugation and dialyzed overnight against A. This fraction was further washed and filtered through an Amicon unit with XM 50 membrane. The concentrated fraction (6 ml) inside the Amicon unit was applied to an Affi-Gel Blue column (0.8 cm ×18 cm) which had been equilibrated with buffer A for affinity chromatography. The column was washed overnight with buffer A (0.18 ml./min.) and then was eluted with buffer A containing 5 mM NAD. Each 1 ml. fraction was collected.
(§2) The purified secondary alcohol dehydrogenase enzyme (SADH) may be used directly for converting C3 -C6 secondary alcohols to the corresponding methyl ketones by the procedures described above; however, a source of NAD^+ must be added to the reaction medium. One can determine the NAD-linked secondary alcohol dehydrogenase activity with a fluorescence spectrophotometer (Perkin Elmer, Model MPF 44A) by following the formation of reduced NAD (Ex 340 nm, Em 460 nm). The assay system (3 ml.) will typically contain: sodium phosphate buffer pH 7.0, 150 μmol; NAD 1.0 μmol; a given amount of enzyme preparation; and 20 μmol secondary alcohol. The reaction is started by the addition of secondary alcohol. One unit of SADH enzyme activity represents the reduction of one nmole NAD per minute.
The effect of metal-chelating agents and thioreagents on the activity of the purified SADH enzyme were studied. […] The possibility of ethanol or n-propanol as an inhibitor was studied.

[2] = system: cell-free particulate fractions derived from the methylotrophic microorganisms; test: Inhibition of conversion of C3-C6 n-alkanes to sec. alcohols by cell-free particulate fractions; assay type: biochemical; conditions: oxygen and NADH
Excerpt: The conditions for preparing the cell suspensions or the cell-free particulate fractions from methane-grown methylotroph microorganisms is the same as described above.

[3] = system: P(40) fraction of Methylosinus sp. (CRL-15, NRRL B-11,202); test: Effect of inhibitors on propylene epoxidation and methane hydroxylation by P(40) fraction (Table XI); assay type: biochemical; conditions: inhibitor 10^-3 M
Method: The oxidation of methane and propylene by particulate [(P)40 and (P)80] fractions and soluble [S(80)] fraction was measured at 30° C. by estimating the production of methanol and propylene oxide, respectively. The reaction mixtures contained in 1.0 ml: 150 mM potassium phosphate buffer, pH 7.0 containing 5 mM MgC2, 0.6 ml; 10 μmoles NADH, and cellular fraction.
Reaction mixtures were contained in 10 ml vials at 4° C. Vials were sealed with rubber caps. The gaseous phase in the vials was removed using vacuum and then was replaced with a gas mixture of methane or propylene and oxygen at a 1:1, v/v ratio. Oxidation of other gaseous n-alkanes and n-alkenes was examined as described above. For liquid substrates, 10 μ of substrate was used directly. Vials were then incubated at 30° C. on a rotary shaker at 200 RPM.
The products of epoxidation of n-alkenes and hydroxylation of n-alkanes were assayed by flame ionization gas chromatography using a stainless steel column (12'×1/8") packed with 10% Carbowax 20M on 80/100 Chromosorb W and Porapak Q column. The column temperature was maintained isothermally at 120° C. The carrier gas flow rate was 30 ml/min. of helium. The various products were identified by retention time comparisons and co-chromatography with authentic standards.
It has been reported that the oxidation of methane by cell suspensions of methane-utilizing bacteria was inhibited by various metal-binding or metal-chelating agents (Patel et al., J. Bacteriol. 126: 1017-1019 (1976)). […] (CRL-15, NRRL B-11,202) was examined.

[4] = system: purified secondary alcohol dehydrogenase; test: Substrate and electron acceptor specificity of purified yeast secondary alcohol dehydrogenase; assay type: biochemical, Pichia sp. NRRL Y-11,328; conditions: for Oxidation by the purified yeast enzyme (in words): examined spectrophotometrically
Method: (§3) Large scale cultures of Pichia sp. NRRL Y-11,328 were grown with aeration at 30° C. in a 14-liter New Brunswick f fermentor in a mineral salt medium containing methanol (0.4%, v/v) as the sole carbon source. The cells (200 g., wet weight) were suspended in 50 mm sodium phosphate buffer, pH 7.0, containing 1 mM dithiothreitol (buffer A), and crude extracts were prepared as described previously. To the crude extracts, 18 ml. of protamine sulfate solution [2% solution in 0.1 M tris (hydroxymethyl) aminomethane (tris) base] was added dropwise with continuous stirring. After standing for 30 min., the extracts were centrifuged at 20,000 x g. for 60 min. The supernatant solution was fractioned with solid ammonium sulfate. Extracts were brought to 50% of saturation with respect to ammonium sulfate by addition of 313 g. of the salt per liter of extract. Precipitated proteins was removed by centrifugation, and 137 g. of ammonium sulfate was added per liter of the supernatant liquid to bring it to 70% of saturation. Material precipitating between 50 and 70% of saturation was collected by centrifugation and dissolved in buffer A. This preparation was dialyzed overnight against buffer A, and the dialyzed material was applied to a DEAE-cellulose column (5×40 cm) that had been equilibrated with buffer A. The sample was washed with 200 ml. of buffer A and eluted with 2 liters of buffer A that contained NaCl in a linear gradient running from a concentration of 0 to 0.5 M. Fractions of 15 ml. were collected. Fractions containing secondary alcohol dehydrogenase activity were pooled and were termed DEAE-cellulose eluate. The DEAE-cellulose eluate was concentrated by ammonium sulfate fractionation.
(§4) Secondary alcohol dehydrogenase activity was measured spectrophotometrically at 340 nm with a NAD^+ as an electron acceptor. The reaction mixture, in a total 3.0 ml., contained 50 mM phosphate buffer, pH 8.0, 5μmoles NAD^+, crude extracts, and substrate. The reactions were started by addition of 100 μof 0.1 M substrate and the rate of NAD^+ reduction was measured. Protein concentration was determined by the method of Lowry et al.
The substrate specificity of the purified secondary alcohol dehydrogenase was examined spectrophotometrically.

[5] = system: secondary alcohol dehydrogenase (SADH); test: Substrate specificity and Michaelis constants of purified SADH; assay type: biochemical, Pseudomonas sp. ATCC 21439
Method: as §1, §2

[6] = system: cell suspensions of the strains of C1-utilizers tested; test: Production of methyl ketones from secondary alcohols by cell suspensions of C1-utilizers (strains tested); assay type: cell-based; conditions: for Rate of oxidation of secondary alcohols to methyl ketones: cell suspensions of C1-utilizers
Excerpt: The substrate specificity for the oxidation of C3 -C6 secondary alcohols by the strains of C1 -utilizers was studied.

[7] = system: purified secondary alcohol dehydrogenase; test: Inhibition of purified yeast secondary alcohol dehydrogenase; assay type: biochemical, Pichia sp. NRRL Y-11,328; conditions: purified yeast enzyme
Method: as §3, §4
Various primary alcohols not oxidized by secondary alcohol dehydrogenase were tested as potential inhibitors of enzyme activity.

[8] = inhibitor 1 mM, measured spectrofluorometrically

[Ni+2] [nickel]
% inhibition of SADH activity [1, 8]: 20%

[Fe+3] [ferric]
% inhibition of SADH activity [1, 8]: 35%

Oc1cccc2cccnc12 [8-Hydroxyquinoline]
Inhibition of conversion of C3-C6 n-alkanes to sec. alcohols (in words) [2]: inhibited | % inhibition of methane-hydroxylating activity [3]: 80% | % inhibition of propylene-epoxidizing activity [3]: 75%

[Cu+2] [cupric]
% inhibition of SADH activity [1, 8]: 25%

CCCC(C)O (stereo not shown) [2-pentanol]
Oxidation by the purified yeast enzyme (in words) [4]: catalyzed the oxidation | Oxidation by purified SADH (in words) [5]: oxidized at a lower rate | Rate of oxidation of secondary alcohols to methyl ketones [6]: much slower rate

CC(C)CO [isobutanol]
Oxidation by purified SADH (in words) [5]: not oxidized

CCC(O)CO (stereo not shown) [butane 1,2-diol]
Oxidation by the purified yeast enzyme (in words) [4]: not oxidized | Oxidation by purified SADH (in words) [5]: not oxidized

N#C[S][Hg][S]C#N [mercuric thiocyanate]
Inhibition of secondary alcohol dehydrogenase activity (in words) [7]: inhibited

[N-]=[N+]=[N-] [Sodium azide]
% inhibition of SADH activity [1, 8]: 10%

O=C(O)c1cc[c]([Hg+])cc1.[OH-] [p-hydroxymercuribenzoate]
% inhibition of SADH activity [1, 8]: 100% | Inhibition of secondary alcohol dehydrogenase activity (in words) [7]: strongly inhibited

CCCO [n-propanol]
Oxidation by the purified yeast enzyme (in words) [4]: not oxidized

O=C(O)c1cc(SSc2ccc([N+](=O)[O-])c(C(=O)O)c2)ccc1[N+](=O)[O-] [5,5'-dithiobis(2-nitrobenzoic acid)]
% inhibition of SADH activity [1, 8]: 100%

O=[N+]([O-])[O-].[Ag+] [silver nitrate]
Inhibition of secondary alcohol dehydrogenase activity (in words) [7]: inhibited

c1c[nH]cn1 [Imidazole]
Inhibition of secondary alcohol dehydrogenase activity (in words) [7]: strongly inhibited

[Fe+2] [ferrous]
% inhibition of SADH activity [1, 8]: 50%

CCCCCO [pentan-1-ol]
Oxidation by the purified yeast enzyme (in words) [4]: not oxidized

NNC(N)=S [Thiosemicarbazide]
Inhibition of conversion of C3-C6 n-alkanes to sec. alcohols (in words) [2]: inhibited | % inhibition of methane-hydroxylating activity [3]: 100% | % inhibition of propylene-epoxidizing activity [3]: 97%

CC(O)C(C)O (stereo not shown) [butane 2,3-diol]
Oxidation by purified SADH (in words) [5]: oxidized at a lower rate

O=Cc1ccccc1 [benzaldehyde]
Oxidation by purified SADH (in words) [5]: not oxidized

O=C(O)CCC(=O)O [succinic acid]
Oxidation by purified SADH (in words) [5]: not oxidized

CC(O)CO (stereo not shown) [1,2-propandiol]
Oxidation by the purified yeast enzyme (in words) [4]: not oxidized

cytochrome c: cytochrome c tested as electron carrier [reference compound]
Function as electron acceptor/carrier for the purified yeast enzyme ([4]; purified enzyme): could not act as electron carrier

Oc1ccccc1 [phenol]
Oxidation by purified SADH (in words) [5]: not oxidized

[Zn+2] [Zn^++]
% inhibition of SADH activity [1, 8]: 0%

NC(N)=S [Thiourea]
Inhibition of conversion of C3-C6 n-alkanes to sec. alcohols (in words) [2]: inhibited | % inhibition of methane-hydroxylating activity [3]: 98% | % inhibition of propylene-epoxidizing activity [3]: 98% | % inhibition of SADH activity [1, 8]: 0% | Inhibition of production of 2-butanone from 2-butanol ([6]; cell suspensions of the strains tested): not inhibited

CCCCCCC(C)O (stereo not shown) [2-octanol]
Oxidation by the purified yeast enzyme (in words) [4]: not oxidized

[Co+2] [Co^++]
% inhibition of SADH activity [1, 8]: 0%

[Mn+2] [Mn^++]
% inhibition of SADH activity [1, 8]: 0%

O=S(=O)([O-])[O-].[Cu+2] [Cupric Sulfate]
Inhibition of secondary alcohol dehydrogenase activity (in words) [7]: inhibited

CC=O [acetaldehyde]
Oxidation by purified SADH (in words) [5]: oxidized at a lower rate

CO [methanol]
Oxidation by the purified yeast enzyme (in words) [4]: not oxidized

CCCCCC(C)O (stereo not shown) [2-heptanol]
Oxidation by the purified yeast enzyme (in words) [4]: not oxidized | Rate of oxidation of secondary alcohols to methyl ketones [6]: much slower rate

O=C(O)CI [iodoacetic acid]
% inhibition of SADH activity [1]: 0%

OC1CCCCC1 [cyclohexanol]
Oxidation by purified SADH (in words) [5]: oxidized at a lower rate

[Mg+2] [Mg^++]
% inhibition of SADH activity [1, 8]: 0%

C=O [formaldehyde]
Oxidation by purified SADH (in words) [5]: not oxidized

CCC=O [propanal]
Oxidation by purified SADH (in words) [5]: oxidized at a lower rate

CCO [ethanol]
Oxidation by the purified yeast enzyme (in words) [4]: not oxidized

CCN1C(=O)C=CC1=O [N-ethylmalemide]
% inhibition of SADH activity [1, 8]: 6%

CC(O)CCO (stereo not shown) [butane 1,3-diol]
Oxidation by the purified yeast enzyme (in words) [4]: not oxidized | Oxidation by purified SADH (in words) [5]: oxidized at a lower rate

CCCCO [butan-1-ol]
Oxidation by the purified yeast enzyme (in words) [4]: not oxidized

CCCCC(C)O (stereo not shown) [2-hexanol]
Oxidation by the purified yeast enzyme (in words) [4]: catalyzed the oxidation | Oxidation by purified SADH (in words) [5]: oxidized at a lower rate | Rate of oxidation of secondary alcohols to methyl ketones [6]: much slower rate
